# Data: the NIST ThermoML archive (doi:10.1021/je049913p)
# ± gives the expanded uncertainty stated by the source.
# Columns and labels:
# [1] = Crystal; Adiabatic calorimetry
# [2] = Molar enthalpy of transition or fusion; conditions: Crystal; Adiabatic calorimetry
compound,measurement,setting,value
[Bi] [bismuth],Triple point temperature,[1],544.56 ± 0.005 K
same,Molar enthalpy of transition or fusion,[2],2.655 ± 0.00406 kcal/mol
